Assay results: ChEMBL document CHEMBL5212743, “Selectivity Literature for EUbOPEN Chemogenomics Library wave 3” (2023)

Key:
[1] = target: T1, Phosphatidylinositol 5-phosphate 4-kinase type-2 beta (Homo sapiens) (UniProt P78356); assay: Selectivity interaction (KinomeScan (DiscoverX)) EUB0000738a PIP4K2B; conditions: at 1 µM
T1 sequence (whole entry): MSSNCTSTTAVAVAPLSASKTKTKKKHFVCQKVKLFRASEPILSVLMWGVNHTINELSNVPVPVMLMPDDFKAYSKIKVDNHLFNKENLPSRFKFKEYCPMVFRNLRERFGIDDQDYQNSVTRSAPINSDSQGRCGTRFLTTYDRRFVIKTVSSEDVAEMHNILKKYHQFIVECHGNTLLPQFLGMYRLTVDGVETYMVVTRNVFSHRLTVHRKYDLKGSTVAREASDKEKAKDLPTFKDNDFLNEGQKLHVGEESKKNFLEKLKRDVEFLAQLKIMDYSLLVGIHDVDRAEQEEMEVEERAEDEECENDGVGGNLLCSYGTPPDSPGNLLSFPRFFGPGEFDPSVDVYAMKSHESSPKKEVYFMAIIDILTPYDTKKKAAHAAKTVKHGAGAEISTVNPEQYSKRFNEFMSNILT

[2] = target: Dual specificity tyrosine-phosphorylation-regulated kinase 1B (Homo sapiens, UniProt Q9Y463); assay: Selectivity interaction (KinomeScan (DiscoverX)) EUB0000738a DYRK1B; conditions: at 1 µM
[3] = target: T2, Dual specificity mitogen-activated protein kinase kinase 5 (Homo sapiens) (UniProt Q13163); assay: Selectivity interaction (KinomeScan (DiscoverX)) EUB0000294b MAP2K5; conditions: at 1 µM
T2 sequence (whole entry): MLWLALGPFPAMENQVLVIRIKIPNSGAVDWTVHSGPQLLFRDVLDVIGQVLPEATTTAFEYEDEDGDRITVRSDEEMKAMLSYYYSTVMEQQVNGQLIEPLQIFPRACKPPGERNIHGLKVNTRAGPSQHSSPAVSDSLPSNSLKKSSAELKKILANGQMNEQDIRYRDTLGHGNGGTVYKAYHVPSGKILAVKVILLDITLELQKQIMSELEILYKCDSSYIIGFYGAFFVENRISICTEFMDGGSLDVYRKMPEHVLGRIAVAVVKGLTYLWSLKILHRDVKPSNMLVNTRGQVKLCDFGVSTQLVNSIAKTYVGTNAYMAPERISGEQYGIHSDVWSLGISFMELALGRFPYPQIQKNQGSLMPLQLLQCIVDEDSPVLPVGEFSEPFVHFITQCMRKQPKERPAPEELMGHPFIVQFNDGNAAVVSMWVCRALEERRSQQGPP

[4] = target: Aurora kinase A (Homo sapiens) (UniProt O14965); assay: Selectivity interaction (KinomeScan (DiscoverX)) EUB0000294b STK6; conditions: at 1 µM
[5] = target: Sodium-dependent dopamine transporter (Homo sapiens, UniProt Q01959); assay: Selectivity interaction (GPCR panel (PDSP screen)) EUB0000294b SLC6A3; conditions: at 10 µM
[6] = target: T3, Serine/threonine-protein kinase LATS1 (Homo sapiens) (UniProt O95835); assay: Selectivity interaction (KinomeScan (DiscoverX)) EUB0000294b LATS1; conditions: at 1 µM
T3 sequence (whole entry): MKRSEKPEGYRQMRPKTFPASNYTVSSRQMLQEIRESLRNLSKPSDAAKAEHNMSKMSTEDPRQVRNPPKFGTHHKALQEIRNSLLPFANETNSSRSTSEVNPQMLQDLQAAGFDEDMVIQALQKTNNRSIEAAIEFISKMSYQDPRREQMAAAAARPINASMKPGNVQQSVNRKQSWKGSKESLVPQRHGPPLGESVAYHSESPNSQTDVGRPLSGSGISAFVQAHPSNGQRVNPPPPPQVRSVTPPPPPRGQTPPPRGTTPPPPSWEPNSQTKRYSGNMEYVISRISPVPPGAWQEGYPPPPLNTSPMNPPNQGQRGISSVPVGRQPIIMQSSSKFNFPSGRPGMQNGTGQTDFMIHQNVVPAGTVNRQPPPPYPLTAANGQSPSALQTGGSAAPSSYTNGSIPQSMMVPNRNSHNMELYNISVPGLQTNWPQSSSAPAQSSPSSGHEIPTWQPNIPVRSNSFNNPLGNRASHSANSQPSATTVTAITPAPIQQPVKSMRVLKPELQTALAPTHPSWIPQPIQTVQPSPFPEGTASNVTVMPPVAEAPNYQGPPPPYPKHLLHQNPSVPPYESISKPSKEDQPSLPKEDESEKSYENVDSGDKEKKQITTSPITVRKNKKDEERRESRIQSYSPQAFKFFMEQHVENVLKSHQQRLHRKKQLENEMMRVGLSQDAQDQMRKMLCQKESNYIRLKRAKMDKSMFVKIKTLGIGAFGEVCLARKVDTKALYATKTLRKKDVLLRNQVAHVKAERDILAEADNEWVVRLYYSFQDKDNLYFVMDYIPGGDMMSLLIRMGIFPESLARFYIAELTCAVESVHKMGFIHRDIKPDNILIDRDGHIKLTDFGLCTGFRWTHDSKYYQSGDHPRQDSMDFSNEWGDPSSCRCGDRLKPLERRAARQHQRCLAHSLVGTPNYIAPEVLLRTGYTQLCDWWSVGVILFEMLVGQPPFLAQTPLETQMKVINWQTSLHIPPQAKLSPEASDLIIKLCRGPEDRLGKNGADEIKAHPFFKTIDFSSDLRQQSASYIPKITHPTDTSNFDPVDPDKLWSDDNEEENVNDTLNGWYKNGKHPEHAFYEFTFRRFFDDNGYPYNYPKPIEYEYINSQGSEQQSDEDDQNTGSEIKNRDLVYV

[7] = target: NT-3 growth factor receptor (Homo sapiens, UniProt Q16288); assay: Selectivity interaction (KinomeScan (DiscoverX)) EUB0000294b NTRK3; conditions: at 1 µM
[8] = target: Nischarin (Homo sapiens) (UniProt Q9Y2I1); assay: Selectivity interaction (MDS Pharma Service panel (GPCR, ion channels, receptors, and other enzymes, radioligand binding assays)) EUB0000294b NISCH; conditions: at 10 µM
[9] = target: Kappa-type opioid receptor (Homo sapiens, UniProt P41145); assay: Selectivity interaction (SafetyScreen44™ (Eurofins, ion channels, GPCRs, hydrolases, and other enzymes)) EUB0000282b OPRK1; conditions: at 10 µM
[10] = target: T4, Mitogen-activated protein kinase kinase kinase 13 (Homo sapiens) (UniProt O43283); assay: Selectivity interaction (KinomeScan (DiscoverX)) EUB0000347a MAP3K13; conditions: at 1 µM
T4 sequence (whole entry): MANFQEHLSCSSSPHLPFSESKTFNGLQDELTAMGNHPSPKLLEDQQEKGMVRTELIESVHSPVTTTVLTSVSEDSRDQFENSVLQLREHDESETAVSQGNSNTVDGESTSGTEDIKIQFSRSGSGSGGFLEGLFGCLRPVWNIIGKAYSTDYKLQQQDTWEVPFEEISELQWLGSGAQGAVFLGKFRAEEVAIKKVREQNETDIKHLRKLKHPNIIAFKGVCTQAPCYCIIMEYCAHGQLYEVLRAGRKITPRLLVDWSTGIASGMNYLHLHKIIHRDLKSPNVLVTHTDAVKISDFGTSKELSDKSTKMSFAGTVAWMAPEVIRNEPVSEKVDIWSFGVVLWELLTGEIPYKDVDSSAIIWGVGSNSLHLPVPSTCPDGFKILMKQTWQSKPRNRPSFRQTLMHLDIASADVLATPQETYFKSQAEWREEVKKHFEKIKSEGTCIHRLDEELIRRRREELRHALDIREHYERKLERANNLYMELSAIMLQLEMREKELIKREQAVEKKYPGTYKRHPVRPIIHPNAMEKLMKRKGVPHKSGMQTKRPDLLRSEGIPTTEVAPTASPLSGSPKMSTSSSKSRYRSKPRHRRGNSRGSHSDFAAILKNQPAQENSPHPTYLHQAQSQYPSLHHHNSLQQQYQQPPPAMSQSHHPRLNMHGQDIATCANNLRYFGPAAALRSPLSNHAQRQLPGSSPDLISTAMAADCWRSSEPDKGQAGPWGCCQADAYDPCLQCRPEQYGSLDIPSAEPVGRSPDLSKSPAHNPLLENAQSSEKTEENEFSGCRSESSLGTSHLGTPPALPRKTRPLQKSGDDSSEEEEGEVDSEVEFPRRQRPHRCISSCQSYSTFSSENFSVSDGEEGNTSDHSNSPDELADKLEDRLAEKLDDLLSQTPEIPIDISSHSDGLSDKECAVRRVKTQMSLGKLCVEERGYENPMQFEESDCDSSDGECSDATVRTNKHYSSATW

[11] = target: Cyclin-dependent kinase 5 (Homo sapiens) (UniProt Q00535); assay: Selectivity interaction (KinomeScan (DiscoverX)) EUB0000347a CDK5; conditions: at 1 µM
[12] = target: 5'-AMP-activated protein kinase catalytic subunit alpha-1 (Homo sapiens, UniProt Q13131); assay: Selectivity interaction (KinomeScan (DiscoverX)) EUB0000347a PRKAA1; conditions: at 1 µM
[13] = target: Dual specificity protein kinase CLK4 (Homo sapiens) (UniProt Q9HAZ1); assay: Selectivity interaction (KinomeScan (DiscoverX)) EUB0000347a CLK4; conditions: at 1 µM
[14] = target: Cyclin-dependent kinase-like 2 (Homo sapiens) (UniProt Q92772); assay: Selectivity interaction (KinomeScan (DiscoverX)) EUB0000240b CDKL2; conditions: at 1 µM
[15] = target: Ephrin type-B receptor 3 (Homo sapiens) (UniProt P54753); assay: Selectivity interaction (KinomeScan (Eurofins)) EUB0000250b EPHB3; conditions: at 1 µM
[16] = target: Epidermal growth factor receptor (Homo sapiens, UniProt P00533); assay: Selectivity interaction (KinomeScan (DiscoverX)) EUB0000250b EGFR; conditions: at 1 µM
[17] = target: T5, Ephrin type-B receptor 6 (Homo sapiens) (UniProt O15197); assay: Selectivity interaction (KinomeScan (Eurofins)) EUB0000250b EPHB6; conditions: at 1 µM
T5 sequence (whole entry): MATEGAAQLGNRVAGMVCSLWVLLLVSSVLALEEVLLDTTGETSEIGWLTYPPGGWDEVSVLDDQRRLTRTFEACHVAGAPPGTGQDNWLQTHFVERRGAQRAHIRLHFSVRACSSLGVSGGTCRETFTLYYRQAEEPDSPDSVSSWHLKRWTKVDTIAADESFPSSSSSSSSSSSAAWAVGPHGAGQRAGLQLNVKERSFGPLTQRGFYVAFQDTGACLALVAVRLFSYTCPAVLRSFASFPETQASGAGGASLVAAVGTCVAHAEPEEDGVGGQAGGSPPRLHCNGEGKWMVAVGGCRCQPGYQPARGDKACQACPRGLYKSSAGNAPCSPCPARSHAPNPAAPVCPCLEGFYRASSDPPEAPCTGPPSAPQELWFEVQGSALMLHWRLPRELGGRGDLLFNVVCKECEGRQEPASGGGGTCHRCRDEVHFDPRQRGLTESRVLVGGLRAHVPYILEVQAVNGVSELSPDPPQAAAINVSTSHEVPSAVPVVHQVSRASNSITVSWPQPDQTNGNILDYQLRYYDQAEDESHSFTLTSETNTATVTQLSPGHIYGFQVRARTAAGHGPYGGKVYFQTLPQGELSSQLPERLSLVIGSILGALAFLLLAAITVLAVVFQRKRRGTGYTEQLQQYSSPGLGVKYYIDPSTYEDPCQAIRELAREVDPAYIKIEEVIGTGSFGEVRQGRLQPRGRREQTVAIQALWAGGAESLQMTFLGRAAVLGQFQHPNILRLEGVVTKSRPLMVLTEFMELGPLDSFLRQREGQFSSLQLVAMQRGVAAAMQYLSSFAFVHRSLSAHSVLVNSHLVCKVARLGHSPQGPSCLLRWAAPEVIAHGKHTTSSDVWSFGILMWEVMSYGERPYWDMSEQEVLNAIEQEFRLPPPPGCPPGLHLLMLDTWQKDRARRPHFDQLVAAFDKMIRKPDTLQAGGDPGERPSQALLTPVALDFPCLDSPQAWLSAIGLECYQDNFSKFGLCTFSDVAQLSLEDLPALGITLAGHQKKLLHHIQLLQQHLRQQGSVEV

[18] = target: Tyrosine-protein kinase Fer (Homo sapiens, UniProt P16591); assay: Selectivity interaction (KinomeScan (Eurofins)) EUB0000250b FER; conditions: at 1 µM
[19] = target: Ephrin type-A receptor 5 (Homo sapiens) (UniProt P54756); assay: Selectivity interaction (KinomeScan (Eurofins)) EUB0000250b EPHA5; conditions: at 1 µM
[20] = target: Leukocyte tyrosine kinase receptor (Homo sapiens, UniProt P29376); assay: Selectivity interaction (KinomeScan (DiscoverX)) EUB0000250b LTK; conditions: at 1 µM
Sequence of Leukocyte tyrosine kinase receptor (P29376 whole entry): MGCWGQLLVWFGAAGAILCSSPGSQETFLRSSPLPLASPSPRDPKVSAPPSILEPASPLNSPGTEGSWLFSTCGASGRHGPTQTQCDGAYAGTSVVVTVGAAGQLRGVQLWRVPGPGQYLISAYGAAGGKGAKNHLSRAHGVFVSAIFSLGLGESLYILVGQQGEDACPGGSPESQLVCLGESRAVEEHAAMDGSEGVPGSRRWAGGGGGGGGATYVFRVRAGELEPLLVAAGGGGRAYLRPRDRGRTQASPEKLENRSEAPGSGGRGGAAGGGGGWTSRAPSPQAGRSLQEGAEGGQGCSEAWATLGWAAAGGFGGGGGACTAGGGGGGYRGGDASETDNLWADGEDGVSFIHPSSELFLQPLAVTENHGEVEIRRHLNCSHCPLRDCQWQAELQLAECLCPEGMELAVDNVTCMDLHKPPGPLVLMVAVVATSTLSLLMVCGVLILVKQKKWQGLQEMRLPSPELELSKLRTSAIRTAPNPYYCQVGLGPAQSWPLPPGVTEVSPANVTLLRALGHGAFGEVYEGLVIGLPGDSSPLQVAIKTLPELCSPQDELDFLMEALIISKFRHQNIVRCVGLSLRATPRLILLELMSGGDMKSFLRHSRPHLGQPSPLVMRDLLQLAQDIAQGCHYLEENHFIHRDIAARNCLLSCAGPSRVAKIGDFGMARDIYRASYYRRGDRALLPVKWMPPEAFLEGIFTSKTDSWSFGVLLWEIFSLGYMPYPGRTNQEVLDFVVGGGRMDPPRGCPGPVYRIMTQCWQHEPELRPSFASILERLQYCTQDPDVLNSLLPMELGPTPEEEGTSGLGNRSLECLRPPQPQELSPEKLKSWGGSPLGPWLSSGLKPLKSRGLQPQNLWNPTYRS

Sequence of 5'-AMP-activated protein kinase catalytic subunit alpha-1 (Q13131 whole entry, looked up): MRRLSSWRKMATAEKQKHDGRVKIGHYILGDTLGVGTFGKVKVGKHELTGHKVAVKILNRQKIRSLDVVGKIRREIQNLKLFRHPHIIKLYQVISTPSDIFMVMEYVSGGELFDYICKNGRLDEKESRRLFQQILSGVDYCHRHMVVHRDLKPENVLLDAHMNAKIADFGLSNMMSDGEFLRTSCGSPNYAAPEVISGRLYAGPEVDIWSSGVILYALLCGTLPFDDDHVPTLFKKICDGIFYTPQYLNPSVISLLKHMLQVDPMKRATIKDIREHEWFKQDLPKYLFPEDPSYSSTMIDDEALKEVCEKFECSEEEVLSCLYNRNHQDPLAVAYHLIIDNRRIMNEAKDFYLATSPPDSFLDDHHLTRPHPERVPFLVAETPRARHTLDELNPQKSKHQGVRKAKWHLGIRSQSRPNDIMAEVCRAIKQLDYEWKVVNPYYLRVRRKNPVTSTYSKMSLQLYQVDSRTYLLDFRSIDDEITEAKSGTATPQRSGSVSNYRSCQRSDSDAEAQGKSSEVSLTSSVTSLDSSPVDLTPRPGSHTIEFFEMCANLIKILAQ
Sequence of Nischarin (Homo sapiens) (Q9Y2I1 whole entry): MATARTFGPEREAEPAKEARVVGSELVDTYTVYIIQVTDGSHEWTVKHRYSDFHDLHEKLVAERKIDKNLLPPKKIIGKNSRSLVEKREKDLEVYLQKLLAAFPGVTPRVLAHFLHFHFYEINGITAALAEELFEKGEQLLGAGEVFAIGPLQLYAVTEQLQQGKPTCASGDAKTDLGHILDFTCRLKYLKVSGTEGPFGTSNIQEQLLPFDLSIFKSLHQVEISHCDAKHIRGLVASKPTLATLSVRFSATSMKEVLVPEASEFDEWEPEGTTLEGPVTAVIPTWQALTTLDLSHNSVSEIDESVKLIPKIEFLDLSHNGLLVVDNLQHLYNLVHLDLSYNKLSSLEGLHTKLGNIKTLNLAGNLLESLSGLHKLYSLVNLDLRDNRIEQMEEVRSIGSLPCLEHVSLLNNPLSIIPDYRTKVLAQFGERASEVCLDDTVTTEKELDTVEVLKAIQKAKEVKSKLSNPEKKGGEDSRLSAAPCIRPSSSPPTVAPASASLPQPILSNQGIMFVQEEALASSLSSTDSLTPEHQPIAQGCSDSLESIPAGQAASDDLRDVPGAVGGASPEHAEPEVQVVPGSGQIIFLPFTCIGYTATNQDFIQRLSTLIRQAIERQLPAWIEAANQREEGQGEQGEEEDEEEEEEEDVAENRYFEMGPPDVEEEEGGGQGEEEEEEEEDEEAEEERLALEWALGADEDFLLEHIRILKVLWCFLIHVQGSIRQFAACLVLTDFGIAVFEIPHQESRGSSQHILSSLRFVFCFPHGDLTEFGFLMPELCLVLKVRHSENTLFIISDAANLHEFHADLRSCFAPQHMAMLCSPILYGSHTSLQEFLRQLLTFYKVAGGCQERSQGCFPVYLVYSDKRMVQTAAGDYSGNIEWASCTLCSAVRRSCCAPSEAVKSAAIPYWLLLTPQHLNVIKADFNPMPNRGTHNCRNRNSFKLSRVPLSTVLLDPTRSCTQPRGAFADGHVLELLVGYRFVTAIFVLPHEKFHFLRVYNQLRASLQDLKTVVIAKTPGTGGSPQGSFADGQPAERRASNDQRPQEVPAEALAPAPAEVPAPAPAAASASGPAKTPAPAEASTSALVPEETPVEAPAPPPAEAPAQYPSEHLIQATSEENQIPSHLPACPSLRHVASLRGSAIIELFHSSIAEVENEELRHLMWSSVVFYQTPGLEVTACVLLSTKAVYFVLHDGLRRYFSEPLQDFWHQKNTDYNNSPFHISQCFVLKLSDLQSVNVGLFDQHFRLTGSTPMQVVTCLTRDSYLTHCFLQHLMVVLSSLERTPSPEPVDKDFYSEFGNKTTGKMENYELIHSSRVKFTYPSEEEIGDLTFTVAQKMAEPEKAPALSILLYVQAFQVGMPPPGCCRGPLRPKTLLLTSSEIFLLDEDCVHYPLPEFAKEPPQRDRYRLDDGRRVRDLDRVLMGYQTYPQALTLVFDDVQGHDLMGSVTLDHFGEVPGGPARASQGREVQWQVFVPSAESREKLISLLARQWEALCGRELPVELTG
Sequence of Cyclin-dependent kinase-like 2 (Homo sapiens) (Q92772 whole entry): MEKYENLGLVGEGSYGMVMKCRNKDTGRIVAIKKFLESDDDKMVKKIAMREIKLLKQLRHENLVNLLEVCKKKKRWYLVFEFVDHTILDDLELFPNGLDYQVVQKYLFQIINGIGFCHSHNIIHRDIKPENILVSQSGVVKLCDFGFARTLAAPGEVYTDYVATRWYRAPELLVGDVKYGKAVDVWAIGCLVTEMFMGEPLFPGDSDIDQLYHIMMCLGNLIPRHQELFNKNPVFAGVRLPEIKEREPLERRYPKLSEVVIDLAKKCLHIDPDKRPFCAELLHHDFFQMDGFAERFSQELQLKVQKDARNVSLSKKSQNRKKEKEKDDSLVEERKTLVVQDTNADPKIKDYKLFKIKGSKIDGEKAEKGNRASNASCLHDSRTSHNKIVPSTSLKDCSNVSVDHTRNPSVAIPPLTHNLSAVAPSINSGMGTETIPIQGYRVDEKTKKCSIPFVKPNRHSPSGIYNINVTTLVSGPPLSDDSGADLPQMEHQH
Sequence of Dual specificity tyrosine-phosphorylation-regulated kinase 1B (Q9Y463 whole entry, looked up): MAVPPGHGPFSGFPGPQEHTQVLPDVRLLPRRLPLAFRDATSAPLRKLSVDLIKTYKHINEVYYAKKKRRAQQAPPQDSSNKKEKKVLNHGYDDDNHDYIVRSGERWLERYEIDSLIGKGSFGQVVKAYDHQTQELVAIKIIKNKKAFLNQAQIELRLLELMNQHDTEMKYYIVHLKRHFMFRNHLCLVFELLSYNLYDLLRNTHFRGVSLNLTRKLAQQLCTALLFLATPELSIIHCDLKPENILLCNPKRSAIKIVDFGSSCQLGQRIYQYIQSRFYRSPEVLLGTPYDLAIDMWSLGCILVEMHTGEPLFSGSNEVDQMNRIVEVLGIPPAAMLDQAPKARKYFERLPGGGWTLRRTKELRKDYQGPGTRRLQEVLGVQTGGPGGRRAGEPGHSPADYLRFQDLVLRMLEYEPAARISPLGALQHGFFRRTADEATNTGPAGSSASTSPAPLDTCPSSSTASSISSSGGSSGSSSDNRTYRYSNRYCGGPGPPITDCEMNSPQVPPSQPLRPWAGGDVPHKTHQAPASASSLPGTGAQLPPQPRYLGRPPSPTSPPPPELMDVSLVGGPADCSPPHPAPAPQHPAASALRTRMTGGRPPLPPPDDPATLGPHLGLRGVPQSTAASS
Sequence of Ephrin type-B receptor 3 (Homo sapiens) (P54753 whole entry): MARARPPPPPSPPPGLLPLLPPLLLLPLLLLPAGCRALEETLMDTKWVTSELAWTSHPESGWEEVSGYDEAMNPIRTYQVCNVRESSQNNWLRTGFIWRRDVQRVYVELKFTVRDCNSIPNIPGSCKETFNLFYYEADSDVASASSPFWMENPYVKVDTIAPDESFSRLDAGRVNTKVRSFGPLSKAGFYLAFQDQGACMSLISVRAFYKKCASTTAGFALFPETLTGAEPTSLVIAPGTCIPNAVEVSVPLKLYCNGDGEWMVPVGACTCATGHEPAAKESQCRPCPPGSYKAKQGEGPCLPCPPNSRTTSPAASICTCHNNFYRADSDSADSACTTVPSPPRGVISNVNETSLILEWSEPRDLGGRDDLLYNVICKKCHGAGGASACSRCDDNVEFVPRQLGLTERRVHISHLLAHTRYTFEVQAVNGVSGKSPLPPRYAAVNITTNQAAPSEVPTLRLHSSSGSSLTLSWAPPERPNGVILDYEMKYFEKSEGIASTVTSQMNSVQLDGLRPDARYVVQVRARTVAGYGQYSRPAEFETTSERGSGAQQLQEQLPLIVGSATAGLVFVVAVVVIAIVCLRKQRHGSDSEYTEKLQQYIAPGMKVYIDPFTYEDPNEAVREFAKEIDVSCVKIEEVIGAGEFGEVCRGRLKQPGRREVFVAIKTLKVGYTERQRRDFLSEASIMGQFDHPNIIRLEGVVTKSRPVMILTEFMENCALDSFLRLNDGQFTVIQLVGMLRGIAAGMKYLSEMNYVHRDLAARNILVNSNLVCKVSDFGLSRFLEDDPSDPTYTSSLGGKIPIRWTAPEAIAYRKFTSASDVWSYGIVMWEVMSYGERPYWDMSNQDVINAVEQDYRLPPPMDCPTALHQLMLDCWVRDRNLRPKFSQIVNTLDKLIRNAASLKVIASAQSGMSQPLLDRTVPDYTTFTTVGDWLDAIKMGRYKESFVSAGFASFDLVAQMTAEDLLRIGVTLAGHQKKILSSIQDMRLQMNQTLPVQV

CCC(=O)N[C@@H]1CC[C@H](C(=O)N(C)c2ccc(-c3nc4ccccc4o3)cc2)C1
% of control [1]: 45% | % of control [2]: 36%

CCC(=O)N[C@H]1CC[C@@H](C(=O)N(C)c2ccc(-c3nc4ccccc4o3)cc2)C1
% of control [3]: 16% | % of control [4]: 43% | % of inhibition [5]: 77% | % of control [6]: 48% | % of control [7]: 32% | % of inhibition [8]: 19%

O=C(NCc1ccc(F)cc1)C1CCN(S(=O)(=O)c2cc(Cl)cc(Cl)c2)CC1
% of control [9]: 19%

O=C(NCc1ncc(C(F)(F)F)cc1Cl)c1ccc2c(c1)C1(CCS(=O)(=O)CC1)[C@H](C1CC1)N2S(=O)(=O)c1ccc(F)cc1
% of control [10]: 0% | % of control [11]: 0% | % of control [12]: 39% | % of control [13]: 0%

O=C(Nc1cnc(Oc2ccc(F)cc2)nc1)N1CCc2ncccc2[C@@H]1c1ccc(F)cc1
% of control [14]: 33%

CN1CCN(c2cnc3c(C4CCN(C(=O)c5ccc(OC(F)(F)F)cc5N)CC4)ncnc3c2)CC1
% of control [15]: 42% | % of control [16]: 38% | % of control [17]: 18% | % of control [18]: 38% | % of control [19]: 57% | % of control [20]: 49%
